Source: patent US6506791B2, “Method of treatment of protozoan infections in fish” (Jacksonville State University, priority 2000, dated 2003)

Experiments:
[1] = test system: Ick theronts, both free-swimming tomites and non-ruptured cysts; assay: Direct dosing of Ick parasites with Phloxine B, DARK EXPERIMENT (lab conditions); format: cell-based, Ichthyophthirius multifiliis
Experimental: (§1) An in vivo study was conducted involving the direct dosing of Ick parasites with Phloxine B. 1 μl of Ick theronts, both free-swimming tomites and non-ruptured cysts, and 9 μl of a Phloxine solution containing either 1000, 100, 10, 1 and 0 ppm of Phloxine B were placed into 100×15 mm tri-plate petri dishes providing 3 replicates for each treatment. 1 set of the plates was left exposed to ambient light (6 mE m^−2s^−1) for 5 hr (LIGHT EXPERIMENT), while the other set was kept in the dark for 4 hr then exposed to ambient light for 1 hr (DARK EXPERIMENT). Percent mortality was assessed, then both light and dark plates received a second dose of Phloxine B at the same concentration as before and treated in the same manner.

[2] = test system: Ick theronts, both free-swimming tomites and non-ruptured cysts; assay: Direct dosing of Ick parasites with Phloxine B, LIGHT EXPERIMENT (ambient light, lab); format: cell-based, Ichthyophthirius multifiliis
Experimental: as §1

Ick [3] = assay: LIGHT EXPERIMENT under greenhouse conditions (effect of light intensity); format: cell-based, Ichthyophthirius multifiliis
Experimental: as §1
An experiment was designed to test the effect of light intensity on the effectiveness of Phloxine B treatment of Ick. The previous experiments described in Examples 1 and 2 were conducted in the lab. The ambient light intensity in the lab was very low, 6 μmol m^−2s^−1. An experiment was conducted as following the protocol of Example 1, except the experiment was conducted in a greenhouse to better mimic natural light conditions.

[4] = cited from earlier work
dog = details: cited from earlier work
rat = details: cited from earlier work
mouse = details: cited from earlier work
[5] = exposure to sunlight; cited from earlier work
Ick [6] = assay: Light and dark experiment with doubled exposure times (Example 2); format: cell-based, Ichthyophthirius multifiliis; details: 8 hr dark then 2 hr light or 10 hr light
Experimental: as §1
A light and dark experiment were set up following the protocol in Example 1, but exposure times were doubled—8 hr dark then 2 hr light or 10 hr light.

humans = details: according to the FDA (1982); cited from earlier work
[7] = test system: Ick trophozoite stage attached to the fish host; assay: Aquarium treatment of fish infected with Ick, microscopic examination; format: in vivo, Ichthyophthirius multifiliis; details: around 5 mg/L in aquarium, added in darkness, at least eight hours absorption, then artificial lamps
Excerpt: The effectiveness of treatments of photoactive dyes on parasite control in a particular fish population can be determined by those skilled in the art by monitoring the general behavior of the fish (swimming, feeding, etc.) and the appearance of the parasite by microscopic examination. For example, live Ick trophozoites may be monitored using image analysis microscopy using a Image-Pro Plus V. 4.0.0.13, available from Media Cybernetics, L.P.
In one embodiment of the invention, the photoactive dye, Phloxine B, is added as a dry powder to an aquarium containing fish infected with Ick. The Phloxine B is added to achieve a final concentration of around 5 mg/L. The Phloxine B is added to the aquarium in darkness and at least eight hours of absorption is allowed before photoactivation. Photoactivation is achieved by exposing the Ick infected fish to light from artificial lamps. […] Although this particular embodiment is performed in a laboratory setting, those skilled in the art will understand that the teachings can be adapted to a commercial operation without undue experimentation.

SMILES: O=C([O-])c1c(Cl)c(Cl)c(Cl)c(Cl)c1-c1c2cc(Br)c(=O)c(Br)c-2oc2c(Br)c([O-])c(Br)cc12.[Na+].[Na+] [Phloxine B, 2′, 4′, 5′ 7′-tetrabromo-4,5,6,7-tetrachlorofluorescein, disodium salt]
- Percent mortality ([1]; 1 ppm, 1 dose, dark 4 hr then ambient light 1 hr): No effect
- Percent mortality ([1]; 1 ppm, 2 doses, dark 4 hr then ambient light 1 hr per dose): No effect
- Percent mortality ([1]; 10 ppm, 1 dose, dark 4 hr then ambient light 1 hr): No effect
- Percent mortality ([1]; 10 ppm, 2 doses, dark 4 hr then ambient light 1 hr per dose): No effect
- Percent mortality ([1]; 100 ppm, 1 dose, dark 4 hr then ambient light 1 hr): No effect
- Percent mortality ([1]; 100 ppm, 2 doses, dark 4 hr then ambient light 1 hr per dose): 10% Mortality
- Percent mortality ([1]; 1000 ppm, 1 dose, dark 4 hr then ambient light 1 hr): 40% Mortality
- Percent mortality ([1]; 1000 ppm, 2 doses, dark 4 hr then ambient light 1 hr per dose): 95% Mortality
- Percent mortality ([2]; 1 ppm, 1 dose, ambient light 5 hr): No effect
- Percent mortality ([2]; 1 ppm, 2 doses, ambient light 5 hr per dose): No effect
- Percent mortality ([2]; 10 ppm, 1 dose, ambient light 5 hr): No effect
- Percent mortality ([2]; 10 ppm, 2 doses, ambient light 5 hr per dose): No effect
- Percent mortality ([2]; 100 ppm, 1 dose, ambient light 5 hr): 20% Mortality
- Percent mortality ([2]; 100 ppm, 2 doses, ambient light 5 hr per dose): 80% Mortality
- Percent mortality ([2]; 1000 ppm, 1 dose, ambient light 5 hr): 80% Mortality
- Percent mortality ([2]; 1000 ppm, 2 doses, ambient light 5 hr per dose): 100% Mortality
- Uptake of the dye by free-swimming and encysted organisms ([2]; observation from Examples 1-3): taken up both free-swimming and encysted organisms
- Percent mortality (Ick [3]; 1 ppm): No effect
- Percent mortality (Ick [3]; 10 ppm, 1 dose): No effect
- Percent mortality (Ick [3]; 100 ppm, 1 dose): 50% Mortality
- Percent mortality (Ick [3]; 1000 ppm, 1 dose): 100% Mortality
- Water solubility [4]: greater than 120 mg/l
- LD50 (dog): > 4600 mg/kg
- LD50 (rat): 8400 mg/kg
- LD50 (mouse): 310 mg/kg
- Time to degradation and detoxification [5]: < 1 h
- Effect of exposure time on effectiveness of the dye (Ick [6]): longer exposure time increased the effectiveness
- Relatively non-toxic ingested amount (humans): ≤ 1.25 mg/kg body weight
- Effectiveness against trophozoite stage attached to the fish host [7]: effective against the formerly invulnerable trophozoite stage
